# Measured values reported in patent publication US20090029992A1, “SUBSTITUTED PYRAZOLE COMPOUNDS” (priority 2007, published 2009).
# pIC50: −log10 of the molar value.
# Experiments:
# Type in all cases: biochemical
# [1] = target: T1, N-terminal His-tagged human Src (Homo sapiens, UniProt P12931); assay: Src kinase inhibition assay (33P-ATP filter assay)
# T1 construct: His (N); purchased Upstate USA Inc, 706 Forest Street, Charlottesville, Va
# [2] = target: T2, N-terminal GST-tagged recombinant human Flt3, residues 564-end (Homo sapiens, UniProt P36888); assay: Flt3 kinase inhibition assay (33P-ATP filter assay); conditions: 40 minutes at room temperature
# T2 construct: recombinant human Flt3, residues 564-end; GST (N); purchased Upstate USA Inc, 706 Forest Street, Charlottesville, Va
# T2 sequence (P36888 564-993 limits assumed): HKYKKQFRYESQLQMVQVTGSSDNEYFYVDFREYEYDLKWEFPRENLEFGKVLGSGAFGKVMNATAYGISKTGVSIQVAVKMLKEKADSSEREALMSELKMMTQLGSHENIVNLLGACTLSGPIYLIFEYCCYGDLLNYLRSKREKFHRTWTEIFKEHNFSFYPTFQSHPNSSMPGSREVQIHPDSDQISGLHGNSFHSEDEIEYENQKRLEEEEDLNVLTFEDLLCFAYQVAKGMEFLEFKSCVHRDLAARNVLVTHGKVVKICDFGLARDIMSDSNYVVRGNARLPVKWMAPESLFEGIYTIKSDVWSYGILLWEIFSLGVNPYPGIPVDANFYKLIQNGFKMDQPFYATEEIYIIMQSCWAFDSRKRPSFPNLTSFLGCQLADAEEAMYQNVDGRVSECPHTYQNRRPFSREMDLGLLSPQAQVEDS
# How it was run: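 Serial compound dilutions incubated 40 min at room temperature with 5-10 mU Flt3 kinase, 50 μM peptide substrate and [γ-33P]ATP/10 mM magnesium acetate, pH 7.0. Phosphoric acid stop, filter capture and scintillation counting; activity compared with uninhibited reactions.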
# [3] = target: T3, N-terminal His6-tagged recombinant human KDR, residues 790-end (Homo sapiens, UniProt P35968); assay: KDR kinase inhibition assay (33P-ATP filter assay)
# T3 construct: recombinant human KDR, residues 790-end; His6 (N); purchased Upstate USA Inc, 706 Forest Street, Charlottesville, Va
# T3 sequence (P35968 790-1356 limits assumed): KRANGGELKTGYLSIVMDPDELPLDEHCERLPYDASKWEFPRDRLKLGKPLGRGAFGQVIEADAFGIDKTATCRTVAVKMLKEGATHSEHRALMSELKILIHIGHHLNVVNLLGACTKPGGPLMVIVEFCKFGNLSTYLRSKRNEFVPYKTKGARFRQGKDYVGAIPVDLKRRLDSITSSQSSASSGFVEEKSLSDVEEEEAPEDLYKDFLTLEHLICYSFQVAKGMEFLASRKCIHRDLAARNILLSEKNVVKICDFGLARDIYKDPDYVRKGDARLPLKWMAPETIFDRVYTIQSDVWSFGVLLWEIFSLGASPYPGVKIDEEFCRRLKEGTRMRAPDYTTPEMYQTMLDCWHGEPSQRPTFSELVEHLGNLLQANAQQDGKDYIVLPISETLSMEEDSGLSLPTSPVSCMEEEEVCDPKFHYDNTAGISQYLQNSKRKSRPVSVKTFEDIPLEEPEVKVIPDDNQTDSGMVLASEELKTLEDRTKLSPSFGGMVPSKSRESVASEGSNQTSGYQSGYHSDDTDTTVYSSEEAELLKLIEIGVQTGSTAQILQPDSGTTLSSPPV
# How it was run: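 Radiometric filter assay: reaction started with Mg acetate (10 mM)/[γ-33P]ATP mix, run 40 min at room temperature in 8 mM MOPS pH 7.0 with 0.2 mM EDTA, MBP substrate (0.33 mg/mL) and recombinant KDR 790-end (5-10 mU). Phosphate incorporation by scintillation counting of P30 filtermats, compared with uninhibited reactions.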
# [4] = group with IC50 greater than 100 nM
# T1 sequence (P12931 whole entry): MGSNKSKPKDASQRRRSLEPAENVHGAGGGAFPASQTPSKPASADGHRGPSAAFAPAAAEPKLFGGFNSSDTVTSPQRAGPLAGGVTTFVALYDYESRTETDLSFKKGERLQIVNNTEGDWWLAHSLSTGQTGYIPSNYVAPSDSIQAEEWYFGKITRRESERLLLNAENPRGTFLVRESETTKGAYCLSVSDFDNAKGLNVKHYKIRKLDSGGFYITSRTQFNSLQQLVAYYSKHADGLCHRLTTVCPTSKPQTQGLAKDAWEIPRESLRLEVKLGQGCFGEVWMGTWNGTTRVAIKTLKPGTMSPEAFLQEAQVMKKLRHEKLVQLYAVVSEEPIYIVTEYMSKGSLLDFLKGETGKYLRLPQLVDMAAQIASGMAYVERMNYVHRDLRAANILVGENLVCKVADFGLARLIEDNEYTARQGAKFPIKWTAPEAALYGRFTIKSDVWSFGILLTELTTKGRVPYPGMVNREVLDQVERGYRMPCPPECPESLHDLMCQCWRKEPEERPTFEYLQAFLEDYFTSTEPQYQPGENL
Compound,pIC50 ([1]; 40 minutes at room temperature),pIC50 [2],pIC50 ([3]; 40 minutes at room temperature),"pIC50 [1, 4]","pIC50 [3, 4]"
"Cc1cc(Nc2cc(N3CCN(C)CC3)nc(-c3ccc(Cl)cc3)n2)n[nH]1 [Compound 35, 2-(4-chlorophenyl)-N-(5-methyl-1H-pyrazol-3-yl)-6-(4-methylpiperazin-1-yl)pyrimidin-4-amine]",≥ 7.00,≥ 7.00,≥ 7.00,,
"COc1cc(OC)cc(-c2nc(Nc3cc(C)[nH]n3)cc(N3CCN(C)CC3)n2)c1 [Example 191, 2-(3,5-dimethoxyphenyl)-N-(5-methyl-1H-pyrazol-3-yl)-6-(4-methylpiperazin-1-yl)pyrimidin-4-amine]",≥ 7.00,≥ 7.00,≥ 7.00,,
"Cc1cc(Nc2cc(NC3CCOCC3)nc(-c3ccc(Cl)cc3)n2)n[nH]1 [Compound 22, 2-(4-chlorophenyl)-N^4-(5-methyl-1H-pyrazol-3-yl)-N^6-(tetrahydro-2H-pyran-4-yl)pyrimidine-4,6-diamine]",,≥ 7.00,,≥ 6.00,≥ 6.00
"Cc1cc(Nc2cc(N3CCN(C)CC3)nc(-c3cccnc3)n2)n[nH]1 [Compound 89, N-(5-methyl-1H-pyrazol-3-yl)-6-(4-methylpiperazin-1-yl)-2-(pyridin-3-yl)pyrimidin-4-amine]",≥ 7.00,≥ 7.00,,,≥ 6.00
"Cc1cc(Nc2cc(N3CCN(C)CC3)nc(-c3cccc4ccoc34)n2)n[nH]1 [Example 203, 2-(benzofuran-7-yl)-N-(5-methyl-1H-pyrazol-3-yl)-6-(4-methylpiperazin-1-yl)pyrimidin-4-amine]",≥ 7.00,≥ 7.00,≥ 7.00,,
"Cc1cc(Nc2cc(N3CCN(C)CC3)nc(-c3ccco3)n2)n[nH]1 [Compound 14, 2-(furan-2-yl)-N-(5-methyl-1H-pyrazol-3-yl)-6-(4-methylpiperazin-1-yl)-pyrimidin-4-amine]",,≥ 7.00,,≥ 6.00,≥ 6.00
"Cc1cc(Nc2cc(NCCN3CCOCC3)nc(-c3ccccc3)n2)n[nH]1 [Compound 11, N^4-(5-methyl-1H-pyrazol-3-yl)-N^6-(2-morpholinoethyl)-2-phenylpyrimidine-4,6-diamine]",,≥ 7.00,≥ 7.00,≥ 6.00,
